Columns and labels:
[1] = tested on: NIH-3T3 fibroblast cells; test: Stimulation of proliferation of NIH-3T3 cells (3H-thymidine uptake); assay type: cell-based; details: 10, 50, 100 and 500 nM preptin; FIG. 1
Procedure: NIH-3T3 cells may be used for various purposes including research regarding mitogenicity investigations. See, e.g., Buergisser et al. (1990). BiochemBiophys Res Comm 169(3): 832-839; Burgisser et al. (1991). J Biol. Chem 266(2): 1029-33; Yang et al. (1996). Endocrinol 137(7): 2766-2773; Geddes et al. (2001). Prot Engin 14(1): 61-65. NIH-3T3 cells were seeded in 24 well plates at a density of 3×10^4 cells/well. Cells were grown at 37° C. for 24 hours in high glucose DMEM (supplemented with 30 mM sodium hydrogen carbonate, 2 mM L-glutamine, 10^5 IU/l penicillin, 0.01% streptomycin sulphate) and 10% fetal calf serum, after which time they were serum starved for 24 hours in high DMEM and 0.2% BSA. […] This alkaline cell lysate was then neutralized with 200 μl of 0.2M HCl before 300 μl aliquots were mixed with 2 ml of Starscint scintillation fluid, and counted on a scintillation counter.
One method of measuring cell proliferation is via the incorporation of labeled nucleotides (e.g., [3H]-thymidine) into- newly synthesized DNA during cell division. For example, one of the most familiar and widely used methods for quantifying cell proliferation is the measurement of tritiated thymidine ([3H]-thymidine) incorporation. […]

[2] = tested on: INS-1E β-cells; test: Stimulation of proliferation of INS-1E β-cells (3H-thymidine uptake); assay type: cell-based; details: general statement; test with 10 nM rat preptin in INS-1E cells, FIG. 2
Procedure: INS-1E cells were seeded in 24 well plates at a density of 2×10^5 cells/well. Cells were grown at 37° C. for 24 hours in modified RPMI-1640 (GIBCO R-1383 Lot108H83032; supplemented with 23.8 mM sodium hydrogen carbonate, 2 mM L-glutamine, 10 mM HEPES, 50 μM β-Mercaptoethanol, 1 mM Sodium Pyruvate, 10^5 IU/l penicillin, 0.01% streptomycin sulphate) and 10% fetal calf serum, after which time they were serum starved for 24 hours in modified RPMI-1640. The serum free medium was then replaced with 500 μl of RPMI-1640 containing the following:
0% fetal calf serum (negative control), 10% fetal calf serum (positive control), 10 nM of rat preptin (rPreptin 10 nM), 10 nM of human GLP-1 (hGLP-1 10 nM), 10 nM of human IGF-II (hIGF-II 10 nM), and cells were incubated for a further 18 hours before the addition of 5 μCi of ^3H-thymidine to each well. After a further 6 hours incubation, medium was aspirated and cells were washed twice with cold PBS, once with cold 5% TCA, and twice with cold 100% ethanol. Plates were then air-dried for 30 minutes before cells were solubilized with 400 μl of 0.5M NaOH. This alkaline c ell lysate was then neutralized with 400 μl of 0.5M HCl before 500 μl aliquots were mixed with 2 ml of Starscint scintillation fluid, and counted on a scintillation counter. […]

[3] = tested on: insulin secretion; details: Buchanan et al. (2001) Biochem. J. 360: 431-439; cited from earlier work

preptin: peptide of 34 amino acids, Formula (I); corresponds to Asp69-Leu102 of proinsulin-like growth factor II (DVSTPPTVLPDNFPRYPVGKFFQYDTWKQSTQRL; Preptin; UniProt P01344 93-126, looked up)
effect on the proliferation of NIH-3T3 fibroblast cells (tritiated thymidine uptake) [1]: dose dependent effect | proliferation of pancreatic islet β-cells [2]: stimulate proliferation | effect on insulin secretion [3]: enhance, but not initiate, insulin secretion

— patent publication US20040142393A1, “Methods of use of compounds with preptin function” (priority 2002, published 2004)
